# Results from ChEMBL document CHEMBL4308841, “Synthesis, in vitro antiproliferative activity, and kinase inhibitory effects of pyrazole-containing diarylureas and diarylamides” (Eur J Med Chem, 2018).
# How the values were obtained:
# [1] = test system: RXF 393; assay: Growth inhibition of human RXF393 cells assessed as cell growth at 100 uM incubated for 48 hrs by sulforhodamine B assay relative to control; type: functional; conditions: RXF 393, 48 h, read-out: Activity
# [2] = test system: LOX IMVI; assay: Growth inhibition of human LOXIMVI cells incubated for 48 hrs by sulforhodamine B assay; type: functional
# [3] = test system: UACC-257; assay: Growth inhibition of human UACC257 cells assessed as cell growth at 0.1 uM incubated for 48 hrs by sulforhodamine B assay relative to control; type: functional; conditions: UACC-257, 48 h, read-out: Activity
# [4] = test system: U-251; assay: Growth inhibition of human U251 cells assessed as cell growth at 0.01 uM incubated for 48 hrs by sulforhodamine B assay relative to control; type: functional; conditions: U-251, 48 h, read-out: Activity
# [5] = test system: RPMI-8226; assay: Growth inhibition of human RPMI8226 cells assessed as cell growth at 100 uM incubated for 48 hrs by sulforhodamine B assay relative to control; type: functional; conditions: RPMI-8226, 48 h, read-out: Activity
# [6] = test system: NCI-H322M; assay: Growth inhibition of human NCI-H322M cells assessed as cell growth at 0.1 uM incubated for 48 hrs by sulforhodamine B assay relative to control; type: functional; conditions: read-out: Activity
# [7] = test system: A498; assay: Growth inhibition of human A498 cells assessed as cell growth at 100 uM incubated for 48 hrs by sulforhodamine B assay relative to control; type: functional; conditions: A498, 48 h, read-out: Activity
# [8] = test system: MDA-MB-468; assay: Growth inhibition of human MDA-MB-468 cells assessed as cell growth at 1 uM incubated for 48 hrs by sulforhodamine B assay relative to control; type: functional; conditions: MDA-MB-468, 48 h, read-out: Activity
# [9] = test system: COLO 205; assay: Growth inhibition of human COLO205 cells assessed as cell growth at 0.01 uM incubated for 48 hrs by sulforhodamine B assay relative to control; type: functional; conditions: COLO 205, 48 h, read-out: Activity
# [10] = test system: HCC 2998; assay: Growth inhibition of human HCC2998 cells assessed as cell growth at 0.01 uM incubated for 48 hrs by sulforhodamine B assay relative to control; type: functional; conditions: HCC 2998, 48 h, read-out: Activity
# [11] = test system: SW-620; assay: Growth inhibition of human SW620 cells incubated for 48 hrs by sulforhodamine B assay; type: functional, cell-based; conditions: SW-620, 48 h
# [12] = test system: NCI/ADR-RES; assay: Growth inhibition of human NCI/ADR-RES cells assessed as cell growth at 0.01 uM incubated for 48 hrs by sulforhodamine B assay relative to control; type: functional; conditions: read-out: Activity
# [13] = test system: DU-145; assay: Growth inhibition of human DU145 cells assessed as cell growth at 0.01 uM incubated for 48 hrs by sulforhodamine B assay relative to control; type: functional; conditions: DU-145, 48 h, read-out: Activity
# [14] = test system: K562; assay: Growth inhibition of human K562 cells incubated for 48 hrs by sulforhodamine B assay; type: functional, cell-based; conditions: K562, 48 h
# [15] = test system: HCC 2998; assay: Growth inhibition of human HCC2998 cells assessed as cell growth at 1 uM incubated for 48 hrs by sulforhodamine B assay relative to control; type: functional; conditions: HCC 2998, 48 h, read-out: Activity
# [16] = test system: UACC-62; assay: Growth inhibition of human UACC62 cells assessed as cell growth at 1 uM incubated for 48 hrs by sulforhodamine B assay relative to control; type: functional; conditions: UACC-62, 48 h, read-out: Activity
# [17] = test system: UO-31; assay: Growth inhibition of human UO31 cells assessed as cell growth at 0.1 uM incubated for 48 hrs by sulforhodamine B assay relative to control; type: functional; conditions: UO-31, 48 h, read-out: Activity
# [18] = test system: Malme-3M; assay: Growth inhibition of human MALME-3M cells assessed as cell growth at 1 uM incubated for 48 hrs by sulforhodamine B assay relative to control; type: functional; conditions: read-out: Activity
# [19] = test system: M14; assay: Growth inhibition of human M14 cells assessed as cell growth at 100 uM incubated for 48 hrs by sulforhodamine B assay relative to control; type: functional; conditions: M14, 48 h, read-out: Activity
# [20] = test system: UACC-257; assay: Growth inhibition of human UACC257 cells incubated for 48 hrs by sulforhodamine B assay; type: functional, cell-based; conditions: UACC-257, 48 h
# [21] = test system: SNB-19; assay: Growth inhibition of human SNB19 cells assessed as cell growth at 1 uM incubated for 48 hrs by sulforhodamine B assay relative to control; type: functional; conditions: SNB-19, 48 h, read-out: Activity
# [22] = test system: DU-145; assay: Growth inhibition of human DU145 cells assessed as cell growth at 0.1 uM incubated for 48 hrs by sulforhodamine B assay relative to control; type: functional; conditions: DU-145, 48 h, read-out: Activity
# [23] = test system: UACC-62; assay: Growth inhibition of human UACC62 cells assessed as cell growth at 100 uM incubated for 48 hrs by sulforhodamine B assay relative to control; type: functional; conditions: UACC-62, 48 h, read-out: Activity
# [24] = test system: SF-268; assay: Growth inhibition of human SF268 cells incubated for 48 hrs by sulforhodamine B assay; type: functional, cell-based; conditions: SF-268, 48 h
# [25] = test system: SF-268; assay: Growth inhibition of human SF268 cells assessed as cell growth at 0.01 uM incubated for 48 hrs by sulforhodamine B assay relative to control; type: functional; conditions: SF-268, 48 h, read-out: Activity
# [26] = test system: HT-29; assay: Growth inhibition of human HT-29 cells assessed as cell growth at 10 uM incubated for 48 hrs by sulforhodamine B assay relative to control; type: functional; conditions: HT-29, 48 h, read-out: Activity
# [27] = test system: NCI-H226; assay: Growth inhibition of human NCI-H226 cells assessed as cell growth at 1 uM incubated for 48 hrs by sulforhodamine B assay relative to control; type: functional; conditions: NCI-H226, 48 h, read-out: Activity
# [28] = test system: OVCAR-5; assay: Growth inhibition of human OVCAR5 cells assessed as cell growth at 100 uM incubated for 48 hrs by sulforhodamine B assay relative to control; type: functional; conditions: OVCAR-5, 48 h, read-out: Activity
# [29] = test system: SN12C; assay: Growth inhibition of human SN12C cells assessed as cell growth at 1 uM incubated for 48 hrs by sulforhodamine B assay relative to control; type: functional; conditions: read-out: Activity
# [30] = test system: HOP-62; assay: Growth inhibition of human HOP62 cells assessed as cell growth at 1 uM incubated for 48 hrs by sulforhodamine B assay relative to control; type: functional; conditions: HOP-62, 48 h, read-out: Activity
# [31] = read-out: LC50 (the source's name)
# [32] = read-out: pLC50 (the source's name) (converted)
compound,measurement,setting,value
O=C(Nc1cccc(-n2cc(-c3ccncc3)c(-c3cc(O)cc(Cl)c3)n2)c1)c1cc(C(F)(F)F)cc(C(F)(F)F)c1,growth at 100 µM,[1],-50%
same,GI50,[2]; read-out: GI50,3.29 µM
same,CC50,[2]; [31],> 100 µM
same,TGI,[2]; read-out: TGI,13.7 µM
same,GI50,[2]; read-out: pGI50 (converted),3.31 µM
same,CC50,[2]; [32],> 100 µM
same,TGI,[2]; read-out: pTGI (converted),13.8 µM
same,growth at 0.1 µM,[3],98%
same,growth at 0.01 µM,[4],96%
same,growth at 100 µM,[5],-4%
same,growth at 0.1 µM,[6],90%
same,growth at 100 µM,[7],-2%
same,growth at 1 µM,[8],52%
same,growth at 0.01 µM,[9],102%
same,growth at 0.01 µM,[10],94%
same,GI50,[11]; read-out: GI50,4.48 µM
same,LC50,[11]; read-out: LC50,> 100 µM
same,TGI,[11]; read-out: TGI,> 100 µM
same,GI50,[11]; read-out: pGI50 (converted),4.47 µM
same,LC50,[11]; read-out: pLC50 (converted),> 100 µM
same,TGI,[11]; read-out: pTGI (converted),> 100 µM
same,growth at 0.01 µM,[12],101%
same,growth at 0.01 µM,[13],104%
same,GI50,[14]; read-out: GI50,3.24 µM
same,LC50,[14]; read-out: LC50,> 100 µM
same,TGI,[14]; read-out: TGI,> 100 µM
same,GI50,[14]; read-out: pGI50 (converted),3.24 µM
same,LC50,[14]; read-out: pLC50 (converted),> 100 µM
same,TGI,[14]; read-out: pTGI (converted),> 100 µM
same,growth at 1 µM,[15],96%
same,growth at 1 µM,[16],92%
same,growth at 0.1 µM,[17],70%
same,growth at 1 µM,[18],59%
same,growth at 100 µM,[19],5%
same,GI50,[20]; read-out: GI50,4.23 µM
same,CC50,[20]; [31],> 100 µM
same,TGI,[20]; read-out: TGI,51.2 µM
same,GI50,[20]; read-out: pGI50 (converted),4.27 µM
same,CC50,[20]; [32],> 100 µM
same,TGI,[20]; read-out: pTGI (converted),51.3 µM
same,growth at 1 µM,[21],105%
same,growth at 0.1 µM,[22],99%
same,growth at 100 µM,[23],-35%
same,GI50,[24]; read-out: GI50,6.38 µM
same,CC50,[24]; [31],> 100 µM
same,TGI,[24]; read-out: TGI,> 100 µM
same,GI50,[24]; read-out: pGI50 (converted),6.46 µM
same,CC50,[24]; [32],> 100 µM
same,TGI,[24]; read-out: pTGI (converted),> 100 µM
same,growth at 0.01 µM,[25],92%
same,growth at 10 µM,[26],19.7%
same,growth at 1 µM,[27],91%
same,growth at 100 µM,[28],-32%
same,growth at 1 µM,[29],91%
same,growth at 1 µM,[30],100%
COc1cc(Cl)cc(-c2nn(-c3cccc(NC(=O)Nc4ccc(Cl)c(C(F)(F)F)c4)c3)cc2-c2ccncc2)c1,growth at 100 µM,[1],-58%
same,GI50,[2]; read-out: GI50,1.23 µM
same,TGI,[2]; read-out: TGI,31.4 µM
same,GI50,[2]; read-out: pGI50 (converted),1.23 µM
same,growth at 0.1 µM,[3],59%
same,growth at 0.01 µM,[4],98%
same,growth at 100 µM,[5],-32%
same,growth at 0.1 µM,[6],98%
same,growth at 100 µM,[7],-70%
same,growth at 1 µM,[8],50%
same,growth at 0.01 µM,[9],97%
same,growth at 0.01 µM,[10],95%
same,GI50,[11]; read-out: GI50,1.51 µM
same,LC50,[11]; read-out: LC50,5.78 µM
same,TGI,[11]; read-out: TGI,10.5 µM
same,GI50,[11]; read-out: pGI50 (converted),1.62 µM
same,LC50,[11]; read-out: pLC50 (converted),57.5 µM
same,TGI,[11]; read-out: pTGI (converted),10.5 µM
same,growth at 0.01 µM,[12],98%
same,growth at 0.01 µM,[13],103%
same,GI50,[14]; read-out: GI50,0.537 µM
same,LC50,[14]; read-out: LC50,9.55 µM
same,TGI,[14]; read-out: TGI,10.1 µM
same,GI50,[14]; read-out: pGI50 (converted),5.37 µM
same,LC50,[14]; read-out: pLC50 (converted),95.5 µM
same,TGI,[14]; read-out: pTGI (converted),10 µM
same,growth at 1 µM,[15],97%
same,growth at 1 µM,[16],82%
same,growth at 0.1 µM,[17],55%
same,growth at 1 µM,[18],67%
same,growth at 100 µM,[19],-70%
same,GI50,[20]; read-out: GI50,1.59 µM
same,CC50,[20]; [31],1.55 µM
same,TGI,[20]; read-out: TGI,49.3 µM
same,GI50,[20]; read-out: pGI50 (converted),1.91 µM
same,CC50,[20]; [32],18.6 µM
same,TGI,[20]; read-out: pTGI (converted),2.95 µM
same,growth at 1 µM,[21],87%
same,growth at 0.1 µM,[22],98%
same,growth at 100 µM,[23],-85%
same,GI50,[24]; read-out: GI50,2.55 µM
same,CC50,[24]; [31],7.96 µM
same,TGI,[24]; read-out: TGI,12.1 µM
same,GI50,[24]; read-out: pGI50 (converted),2.63 µM
same,CC50,[24]; [32],79.4 µM
same,TGI,[24]; read-out: pTGI (converted),12 µM
same,growth at 0.01 µM,[25],95%
same,growth at 10 µM,[26],5.57%
same,growth at 1 µM,[27],79%
same,growth at 100 µM,[28],-89%
same,growth at 1 µM,[29],63%
same,growth at 1 µM,[30],84%
